Measurements as given in patent US6509369B2, “Anti-inflammatory compounds” (Ortho-McNeil Pharmaceutical, Inc., priority 1997, dated 2003).

Columns and labels:
[1] = target: T1, human glucocorticoid receptor (hGR) (Homo sapiens, UniProt P04150); assay: human glucocorticoid receptor binding assay (displacement of 3(H) Triamcinolone acetonide); details: for hGR, value given as %: concentration not given
T1 construct: made in house; host or cells: Sf21 insect cells infected with baculovirus hGR, OR IM9 lymphoblast cell line (endogenous hGR)
T1 sequence (P04150 1-777): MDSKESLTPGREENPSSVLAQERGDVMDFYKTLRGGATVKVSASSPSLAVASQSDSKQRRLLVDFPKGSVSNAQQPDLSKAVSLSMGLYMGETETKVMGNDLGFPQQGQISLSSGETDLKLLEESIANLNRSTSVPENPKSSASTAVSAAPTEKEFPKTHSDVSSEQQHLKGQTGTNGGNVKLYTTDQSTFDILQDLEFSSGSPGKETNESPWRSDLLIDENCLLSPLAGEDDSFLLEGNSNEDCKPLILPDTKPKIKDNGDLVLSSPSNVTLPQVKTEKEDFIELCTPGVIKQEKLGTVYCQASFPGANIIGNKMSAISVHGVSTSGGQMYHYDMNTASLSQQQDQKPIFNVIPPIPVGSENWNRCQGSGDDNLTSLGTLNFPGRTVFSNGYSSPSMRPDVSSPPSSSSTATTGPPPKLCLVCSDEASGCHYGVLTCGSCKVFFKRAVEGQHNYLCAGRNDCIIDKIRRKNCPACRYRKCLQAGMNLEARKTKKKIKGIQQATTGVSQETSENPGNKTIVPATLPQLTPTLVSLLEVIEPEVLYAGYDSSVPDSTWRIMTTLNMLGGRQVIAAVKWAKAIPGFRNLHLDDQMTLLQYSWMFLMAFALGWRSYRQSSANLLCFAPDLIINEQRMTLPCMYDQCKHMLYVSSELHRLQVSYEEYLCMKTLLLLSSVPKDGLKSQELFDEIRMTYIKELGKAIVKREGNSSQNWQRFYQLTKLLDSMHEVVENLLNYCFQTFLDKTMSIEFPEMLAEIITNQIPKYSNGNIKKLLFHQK
Experimental: A human glucocorticoid receptor binding assay was carried out to determine the extent to which the compounds of this invention have the ability to bind to human glucocorticoid receptors. This binding ability may be indicative of the antiinflammatory activity of the compound. The test was carried out as follows.
Human glucocorticoid receptors were prepared from either insect cells (Sf21) infected with baculovirus hGR or from a lymphoblast cell line which expresses high levels of endogenous hGR (IM9). The receptor binding reactions, with or without test compounds, were set up in 96-well microtiter plates which were previously siliconized with SIGMACOTE™, a chlorinated organopolysiloxane in heptane. The binding components, 3(H) Triamcinolone acetonide (TAA), glycerol/molybdate-containing buffer and unlabeled compounds were added to the wells using a combination of BIOMEK laboratory automation system and repeat pipettes. After four hours of incubation, the samples were precipitated with polyethylene glycol and filtered through Whatman GF/F paper using a TOMTEK cell harvester. The filter mate with 96 samples were bound to a solid-phase scintillant and directly counted in a BETAPLATE counter. […] The activity of test compounds to displace 3(H) TAA binding to hGR is also expressed as percent inhibition at 1 μM.

[2] = system: oxazolone-induced ear swelling (MOCH) in albino male CD-1 mice; assay: mouse oxazolone-induced contact hypersensitization (MOCH) ear swelling; type: in vivo; set-up: % Inhibition MOCH: concentration or dose not given beside the values; details: for Oxazolone Ear Swelling (MOCH) % inhibition vs. Vehicle at 1 mg: topical to mouse ear, one hour after oxazolone challenge, ear biopsy weight at 24 hours; for % Inhibition MOCH: mouse, in vivo
Experimental: Several triphenylpropanamide compounds of this invention, having varying affinities for the human glucocorticoid receptor, were tested for topical antiinflammatory activity in mouse ear inflammation models. […] Compounds having receptor affinities closer to hydrocortisone were as nearly active as hydrocortisone in suppressing mouse oxazolone-induced contact hypersensitization (MOCH) and phorbol ester-induced ear edema. The in vivo studies of this example were conducted as follows.
In determining the MOCH using the compounds of this invention, albino male CD-1 mice, 7-9 weeks old were induced on the shaved abdomen with 50 μl of 3% oxazolone in acetone/corn oil (Day 0). On Day 5, a 20 μl volume of 2% oxazolone in acetone was applied to the dorsal left ear of the mouse . Compounds (made in ethanol/propylene glycol, 70:30) were applied to the left ear in 20 μl volume, one hour after oxazolone challenge. The right ear was not treated. The mice were sacrificed by carbon dioxide inhalation 24 hours after oxazolone challenge, the left and right ears were removed and a 7 mm biopsy was removed from each ear and weighed. The difference in biopsy weights between the right and left ears was calculated. Antiinflammatory effects of compounds were evident as an inhibition of the increase in ear weight.

Row | Structure (SMILES) | IC50 [1] [nM] | other results
1 | COc1ccc(CC(=O)NCC(c2ccccc2)C(c2ccccc2)c2ccccc2)cc1 (stereo not shown) [Compound 6] | 910 | –
2 | O=C(Cc1ccc(Cl)c(Cl)c1)NCC(c1ccccc1)C(c1ccccc1)c1ccccc1 (stereo not shown) [Compound 9] | 1480 | –
3 | O=C(NCC(c1ccccc1)C(c1ccccc1)c1ccccc1)C(c1ccccc1)c1ccccc1 (stereo not shown) [Compound 13] | 780 | –
4 | O=C(CCc1ccccc1Cl)NCC(c1ccccc1)C(c1ccccc1)c1ccccc1 (stereo not shown) [Compound 22] | 103 | –
5 | O=S(=O)(Cc1ccccc1)NCC(c1ccccc1)C(c1ccccc1)c1ccccc1 (stereo not shown) [Compound 25] | 210 | –
6 | Cc1ccc(S(=O)(=O)NCC(c2ccccc2)C(c2ccccc2)c2ccccc2)cc1 (stereo not shown) [Compound 26] | 175 | –
7 | O=C(CS(=O)(=O)c1ccccc1)NCC(c1ccccc1)C(c1ccccc1)c1ccccc1 (stereo not shown) [Compound 27] | 67 | –
8 | Cc1ccc(S(=O)(=O)CC(=O)NCC(c2ccccc2)C(c2ccccc2)c2ccccc2)cc1 (stereo not shown) [Compound 28] | 57 | –
9 | Cc1ccc(C(=O)NCC(c2ccccc2)C(c2ccccc2)c2ccccc2)s1 (stereo not shown) [Compound 30] | 50 | –
10 | O=C(Cc1cccs1)NCC(c1ccccc1)C(c1ccc(F)cc1)c1ccc(F)cc1 (stereo not shown) [Compound 31] | 8 | –
11 | O=C(Cc1cccs1)NCC(c1ccc(I)cc1)C(c1ccccc1)c1ccccc1 (stereo not shown) [Compound 33] | 8.6 | –
12 | O=C(Cc1ccsc1)NCC(c1ccc(Cl)cc1)C(c1ccccc1)c1ccccc1 (stereo not shown) [Compound 35] | 54 | –
13 | O=C(C=Cc1cccs1)NCC(c1ccccc1)C(c1ccccc1)c1ccccc1 (stereo not shown) [Compound 38] | 189 | –
14 | O=C(C=Cc1ccsc1)NCC(c1ccccc1)C(c1ccccc1)c1ccccc1 (stereo not shown) [Compound 39] | 727 | –
15 | O=S(=O)(NCC(c1ccc(Cl)cc1)C(c1ccccc1)c1ccccc1)c1cccs1 (stereo not shown) [Compound 41] | 491 | –
16 | O=C(NCC(c1ccccc1)C(c1ccccc1)c1ccccc1)c1cc2ccccc2s1 (stereo not shown) [Compound 43] | 495 | –
17 | CN(CC(c1ccccc1)C(c1ccccc1)c1ccccc1)C(=O)Cc1cccs1 (stereo not shown) [Compound 44] | 133 | –
18 | O=C(NCC(c1ccccc1)C(c1ccccc1)c1ccccc1)Nc1ccccc1 (stereo not shown) [Compound 50] | – | Oxazolone Ear Swelling (MOCH) % inhibition vs. Vehicle at 1 mg [2]: 30%
19 | COc1ccccc1NC(=O)NCC(c1ccccc1)C(c1ccccc1)c1ccccc1 (stereo not shown) [Compound 51] | – | hGR, value given as % [1]: 32%

Row | Structure (SMILES) | IC50 [1] [nM] | other results
20 | O=C(NCC(c1ccccc1)C(c1ccccc1)c1ccccc1)Nc1ccccc1Cl (stereo not shown) [Compound 52] | 273 | –
21 | O=C(NCC(c1ccccc1)C(c1ccccc1)c1ccccc1)Nc1ccccc1F (stereo not shown) [Compound 53] | 293 | –
22 | O=C(NCc1ccccc1)NCC(c1ccccc1)C(c1ccccc1)c1ccccc1 (stereo not shown) [Compound 54] | 219 | –
23 | O=C(NCc1ccc(Cl)cc1Cl)NCC(c1ccccc1)C(c1ccccc1)c1ccccc1 (stereo not shown) [Compound 55] | 121 | –
24 | O=C(NCC(c1ccccc1)C(c1ccccc1)c1ccccc1)Oc1ccccc1 (stereo not shown) [Compound 56] | 310 | –
25 | O=C(NCC(c1ccccc1)C(c1ccccc1)c1ccccc1)Oc1ccc(F)cc1 (stereo not shown) [Compound 58] | 240 | –
26 | O=C(NCC(c1ccccc1)C(c1ccccc1)c1ccccc1)Oc1ccc2ccccc2c1 (stereo not shown) [Compound 59] | 155 | –
27 | CCCC(=O)NCC(c1ccccc1)C(c1ccccc1)c1ccccc1 (stereo not shown) [Compound 60] | 446 | –
28 | CC(C)C(=O)NCC(c1ccccc1)C(c1ccccc1)c1ccccc1 (stereo not shown) [Compound 61] | 584 | –
29 | CCCCC(=O)NCC(c1ccccc1)C(c1ccccc1)c1ccccc1 (stereo not shown) [Compound 62] | 121 | –
30 | CC(C)CC(=O)NCC(c1ccccc1)C(c1ccccc1)c1ccccc1 (stereo not shown) [Compound 63] | 316 | –
31 | CC(C)(C)C(=O)NCC(c1ccccc1)C(c1ccccc1)c1ccccc1 (stereo not shown) [Compound 64] | 296 | –
32 | CCOC(=O)CC(=O)NCC(c1ccccc1)C(c1ccccc1)c1ccccc1 (stereo not shown) [Compound 65] | 937 | –
33 | COc1ccccc1CC(=O)NCC(c1ccccc1)C1c2ccccc2-c2ccccc21 (stereo not shown) [Compound 67] | – | hGR, value given as % [1]: 23%
34 | COc1ccccc1CCC(=O)NCC(c1ccccc1)C1c2ccccc2-c2ccccc21 (stereo not shown) [Compound 70] | – | hGR, value given as % [1]: 53%
35 | O=C(Cc1ccccc1)NCC(c1ccccc1)C1c2ccccc2CCc2ccccc21 (stereo not shown) [Compound 73] | 770 | –
36 | COc1ccccc1CCC(=O)NCC(c1ccccc1)C1c2ccccc2CCc2ccccc21 (stereo not shown) [Compound 74] | 388 | –
37 | O=C(Cc1cccs1)NCC(c1ccccc1)C1c2ccccc2CCc2ccccc21 (stereo not shown) [Compound 75] | 363 | –
38 | O=C(Cc1ccsc1)NCC(c1ccccc1)C1c2ccccc2CCc2ccccc21 (stereo not shown) [Compound 76] | 571 | –

Row | Structure (SMILES) | IC50 [1] [nM] | other results
39 | Cc1ccc(C(=O)NCC(c2ccccc2)C2c3ccccc3CCc3ccccc32)s1 (stereo not shown) [Compound 77] | 882 | –
40 | COc1ccccc1CCC(=O)NCC1(c2ccccc2)CC1(c1ccccc1)c1ccccc1 (stereo not shown) [Compound 81] | 709 | –
41 | O=C(Cc1cccs1)NCC1(c2ccccc2)CC1(c1ccccc1)c1ccccc1 (stereo not shown) [Compound 88] | 425 | –
42 | O=C(NCC1(c2ccccc2)CC1(c1ccccc1)c1ccccc1)c1cccs1 (stereo not shown) [Compound 90] | 612 | –
43 | Cc1ccc(C(=O)NCC2(c3ccccc3)CC2(c2ccccc2)c2ccccc2)s1 (stereo not shown) [Compound 91] | 421 | –
44 | O=C(Cc1ccc(Cl)cc1)NCC(c1ccc2c(c1)OCO2)C(c1ccccc1)c1ccccc1 (stereo not shown) [Compound 98] | – | Oxazolone Ear Swelling (MOCH) % inhibition vs. Vehicle at 1 mg [2]: 85%; topical antiinflammatory activity in the oxazolone model (in words) ([2]; topical, mouse ear): equiactive with hydrocortisone
45 | O=C(Cc1cccs1)NCC(c1ccc2c(c1)OCO2)C(c1ccccc1)c1ccccc1 (stereo not shown) [Compound 99] | – | % Inhibition MOCH [2]: 35%
46 | Cc1c(CC(=O)NCC(c2ccc3c(c2)OCO3)C(c2ccccc2)c2ccccc2)sc2ccc(Cl)cc12 (stereo not shown) [Compound 100] | – | % Inhibition MOCH [2]: 18%
47 | O=C(Cc1cc2cc(Cl)ccc2s1)NCC(c1ccc2c(c1)OCO2)C(c1ccccc1)c1ccccc1 (stereo not shown) [Compound 101] | – | % Inhibition MOCH [2]: 26%
48 | O=C(Cc1ccccn1)NCC(c1ccc2c(c1)OCO2)C(c1ccccc1)c1ccccc1 (stereo not shown) [Compound 102] | – | % Inhibition MOCH [2]: 51%
49 | O=C(Cc1cccc(C(F)(F)F)c1)NCC(c1ccc2c(c1)OCO2)C(c1ccccc1)c1ccccc1 (stereo not shown) [Compound 103] | – | % Inhibition MOCH [2]: 37%
50 | O=C(Cc1cc(C(F)(F)F)cc(C(F)(F)F)c1)NCC(c1ccc2c(c1)OCO2)C(c1ccccc1)c1ccccc1 (stereo not shown) [Compound 104] | – | % Inhibition MOCH [2]: 52%
51 | O=C(Cc1ccc([N+](=O)[O-])cc1)NCC(c1ccc2c(c1)OCO2)C(c1ccccc1)c1ccccc1 (stereo not shown) [Compound 105] | – | % Inhibition MOCH [2]: 24%
52 | CCCCOc1ccc(CC(=O)NCC(c2ccc3c(c2)OCO3)C(c2ccccc2)c2ccccc2)cc1 (stereo not shown) [Compound 106] | – | % Inhibition MOCH [2]: 52%
53 | COc1ccccc1CC(=O)NCC(c1ccc2c(c1)OCO2)C(c1ccccc1)c1ccccc1 (stereo not shown) [Compound 107] | – | % Inhibition MOCH [2]: 28%
54 | COc1cc(CC(=O)NCC(c2ccc3c(c2)OCO3)C(c2ccccc2)c2ccccc2)cc(OC)c1 (stereo not shown) [Compound 108] | – | % Inhibition MOCH [2]: 38%
55 | O=C(Cc1ccccc1)NCC(c1ccc2c(c1)OCO2)C(c1ccccc1)c1ccccc1 (stereo not shown) [Compound 109] | – | % Inhibition MOCH [2]: 22%
56 | O=C(Cc1cccc(F)c1)NCC(c1ccc2c(c1)OCO2)C(c1ccccc1)c1ccccc1 (stereo not shown) [Compound 110] | – | % Inhibition MOCH [2]: 20%
57 | O=C(Cc1ccc(F)cc1F)NCC(c1ccc2c(c1)OCO2)C(c1ccccc1)c1ccccc1 (stereo not shown) [Compound 111] | – | % Inhibition MOCH [2]: 60%
